Assay [1] deals with Caspase-9 −/− thymocytes. As to the kind of experiment: Apoptosis assay using thymocytes (Annexin V / 7-AAD, FACS). It is filed as cell-based, mice. To be noted: Caspase-9 −/− thymocytes vs wild type; 2 μM dexamethasone, 1 μM staurosporine or 1 μg/ml anti-mouse Fas antibody plus cycloheximide; 6 hr or 24 hr. From the text: To investigate the role of Caspase-9 in apoptosis pathways in other systems, we used primary cultures of thymocytes. Although thymocytes from Caspase9 −/− animals developed normally with no differences in the number of thymocytes or in the ratio of surface markers such as CD4, CD8 or CD3 (data not shown), we challenged the thymocytes with several apoptotic stimuli: dexamethasone, staurosporine, and anti-Fas antibody
(§1) Thymocytes were isolated from wild type and Caspase9 −/− mice. One million cells were treated with 2 μM dexamethasone (Sigma), 1 μM staurosporine (Sigma), 1 μg/ml anti-mouse Fas antibody (PharMingen) plus […] cycloheximide (Sigma), or 10% FCS medium only for 6 hr or 24 hr. Samples were stained with Annexin V (Boehringer Mannheim) and 7-aminoactinomycin D (7-AAD) (Sigma) to label apoptotic cells for FACS Sort (Becton Dickinson).

Assay [2] concerns Caspase-9 −/− thymocytes. Nature of the assay: DNA fragmentation assay (DNA laddering on agarose gel). It is filed as cell-based, mice. As to the method:
as §1
DNA was isolated using a DNA isolation kit (LeMax Biotech) and subjected to electrophoresis on a 2% agarose gel. Gels were stained by ethidium bromide and images were taken by a scanner.

On to `CN[C@@H]1C[C@H]2O[C@@](C)([C@@H]1OC)n1c3ccccc3c3c4c(c5c6ccccc6n2c5c31)C(=O)NC4` [staurosporine], for which, in the assay on Caspase-9 −/− thymocytes [1], the “thymocyte survival / induced cell death” value is “reduced survival which was comparable to the death seen in controls”. Further, the DNA laddering entry in the assay with Caspase-9 −/− thymocytes [2] (Caspase-9 deficient thymocytes, up to 24 hours of treatment) is recorded as “DNA laddering was also eliminated”. For the same compound, the “DNA cleavage after long-term treatment” value in the assay on Caspase-9 −/− thymocytes [2] (Caspase-9 −/− thymocytes, 36 and 48 hours of continual treatment (data not shown)) is recorded as “did begin to cleave their DNA”.
